Measurements from the supplement of paper PMC10307832.

Tests used:
Test in all cases: relative viability (nuclei count vs DMSO), 5 days (fraction); higher = more cells survive
Crenolanib + Linsitinib = compound: CC1(COc2ccc3c(c2)ncn3-c2ccc3cccc(N4CCC(N)CC4)c3n2)COC1 [Crenolanib] + C[C@]1(O)C[C@@H](c2nc(-c3ccc4ccc(-c5ccccc5)nc4c3)c3c(N)nccn32)C1 [Linsitinib] (partner 1 µM)
Outline: (§1)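 Lung cancer cell lines were pin-tool dosed in 1536-well plates on the day after seeding, with either a lone drug or a fixed anchor-drug dose plus five library-drug doses (not always all listed) in √10 steps. Nuclei were counted on 4× images after 5 days. Relative viability is the ratio of treated-well to vehicle-well nuclei counts, with each value a median of duplicate plates.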

Crenolanib + Bortezomib = compound: CC1(COc2ccc3c(c2)ncn3-c2ccc3cccc(N4CCC(N)CC4)c3n2)COC1 [Crenolanib] + CC(C)C[C@H](NC(=O)[C@H](Cc1ccccc1)NC(=O)c1cnccn1)B(O)O [Bortezomib] (partner 0.002 µM)
Outline: as §1

Tivantinib + Palbociclib = compound: O=C1NC(=O)[C@@H](c2cn3c4c(cccc24)CCC3)[C@@H]1c1c[nH]c2ccccc12 [Tivantinib] + CC(=O)c1c(C)c2cnc(Nc3ccc(N4CCNCC4)cn3)nc2n(C2CCCC2)c1=O [Palbociclib] (partner 0.5 µM)
Outline: as §1

Tivantinib + Dasatinib = compound: O=C1NC(=O)[C@@H](c2cn3c4c(cccc24)CCC3)[C@@H]1c1c[nH]c2ccccc12 [Tivantinib] + Cc1nc(Nc2ncc(C(=O)Nc3c(C)cccc3Cl)s2)cc(N2CCN(CCO)CC2)n1 [Dasatinib] (partner 0.075 µM)
Outline: as §1

Cell Line	relative viability (Crenolanib + Linsitinib; first compound 0.01 µM)	relative viability (Crenolanib + Linsitinib; first compound 0.03162 µM)	relative viability (Crenolanib + Linsitinib; first compound 0.1 µM)	relative viability (Crenolanib + Linsitinib; first compound 0.3162 µM)	relative viability (Crenolanib + Linsitinib; first compound 1 µM)	relative viability (Crenolanib + Bortezomib; first compound 0.01 µM)	relative viability (Crenolanib + Bortezomib; first compound 0.03162 µM)	relative viability (Crenolanib + Bortezomib; first compound 0.1 µM)	relative viability (Crenolanib + Bortezomib; first compound 0.3162 µM)	relative viability (Crenolanib + Bortezomib; first compound 1 µM)	relative viability (Tivantinib + Palbociclib; first compound 0.01 µM)	relative viability (Tivantinib + Palbociclib; first compound 0.03162 µM)	relative viability (Tivantinib + Palbociclib; first compound 0.1 µM)	relative viability (Tivantinib + Palbociclib; first compound 0.3162 µM)	relative viability (Tivantinib + Dasatinib; first compound 0.01 µM)	relative viability (Tivantinib + Dasatinib; first compound 0.03162 µM)	relative viability (Tivantinib + Dasatinib; first compound 0.1 µM)	relative viability (Tivantinib + Dasatinib; first compound 0.3162 µM)
LXF-289	0.974	1.02	0.955	1.02	0.972	1.07	0.996	0.935	1	0.95	0.563	0.563	0.545	0.584	0.302	0.261	0.19	0.175
NCI-H23	0.563	0.671	0.548	0.759	0.648	0.892	1.2	0.865	1.16	0.696	0.614	0.457	0.462	0.493	0.876	0.809	0.699	0.782
NCI-H322M	0.944	0.923	0.884	0.935	0.975	1.36	0.923	1.1	1.27	1.4	0.519	0.484	0.475		0.25	0.234	0.273	
NCI-H441	0.555	0.508	0.46	0.484	0.509	0.29		0.535	0.446	0.557	0.224	0.209	0.199	0.212	0.801	0.555	0.356	0.433
NCI-H460	0.85	0.817	0.745	1.02	0.816	1.05	1.2	1.01	1.6	0.954	0.141	0.138	0.162	0.135	0.461	0.35	0.484	0.492
NCI-H520	0.89	1.07	0.853	1.08	0.868	0.481	0.528	0.824	0.779	0.628	0.263	0.213	0.2	0.203	0.204	0.185	0.193	0.221
NCI-H647	1.14	1.11	1.09	1.31	1.34	1.03	0.94	0.974	1.16	0.888	0.433	0.347	0.356	0.409	0.188	0.194	0.149	0.195
NCI-H650	1.06	0.969	0.952	0.923	0.715	0.944	0.767	0.769	0.855	0.68	0.392	0.32	0.314	0.323	0.504	0.359	0.461	0.527
NCI-H661	0.628	0.527	0.499	0.544	0.497	0.807	0.853	0.851	0.831	0.745	0.453	0.395	0.397	0.315	0.884	0.869	0.736	0.4
